Test results as given in US20180071354A1, “SELECTIVE BREEDING METHOD OF ANTITUMOR/ANTICANCER CAMELLIA SINENSIS STRAIN, AND TEA PRODUCT OF SUCH STRAIN” (FUJIAN AGRICULTURE AND FORESTRY UNIVERSITY, priority 2015, published 2018).

What was measured:
[1] = tested on: HepG2 transplanted tumor (inoculated tumor tissue pieces); test: In vivo antitumor testing, second and third experiments (Animal Model 2); parameters: species or system BALB/c nude mice; details: second experiment
Experimental: The establishment of Animal Model 2 is described below. Male BALB/c nude mice (5 to 6 weeks of age, a body weight of 15 to 16 g, certificate number: SCXK (Hu) 2012-0002) were purchased from Shanghai Silaike Experiment Animal Co., Ltd and were acclimatized for one week. A cell suspension of HepG2 cells having a concentration of 1×10^7 cells/mL was prepared using the same method as that for preparing the cell suspension for Animal Model 1. 0.2 mL of the cell suspension was subcutaneously injected into the back of each of 5 nude mice. […] Tea Product 1 and Conventional Tea Product obtained in section A of Example 3, as well as 5-fluorouracil mentioned in section B of Example 3, were examined for their in vivo antitumor activity. […] In the third experiment, nude mice of Animal Model 2 were divided into three groups, i.e. a control group (n=11), a Tea Product 1 group (n=11), and a Conventional Tea Product group (n=8). […] In all the three experiments above, each of the nude mice was sacrificed 24 hours after the termination of the treatment. The tumor was collected and weighed. The antitumor effect of a respective test substance was evaluated by virtue of the percent tumor growth inhibition (%), which was calculated using the following Equation II: E=[(F−G)/(F)]×100% (I) • E=percent tumor growth inhibition (%) • F=tumor weight of control group • G=tumor weight of respective test substance group The experimental data are expressed as mean±SEM (standard error of the mean). The experimental data were subjected to one-way analysis of variance (ANOVA) using SPSS (Statistical Package for Social Sciences) software package version 11.5, such that the difference between the groups could be evaluated. The data regarding the tumor weights of the groups were subjected to t-test. Statistical significance is indicated by p<0.05.

[2] = tested on: human ovarian cancer cell line SK-OV-3; test: In vitro antitumor/anticancer testing (CCK-8), SK-OV-3; format: cell-based; details: 48 h
Experimental: (§1) Each of Tea Product 1 and Conventional Tea Product obtained in section A of this example was used to prepare test tea samples according to the method described below. A proper amount of the respective tea product was added into sterile water to prepare a stock solution with a concentration of 100 mg/mL, followed by using a membrane filter with a pore size of 0.22 μm to conduct vacuum filtration and sterilization. The resulting stock solution was diluted with a respective complete medium shown in Table 3 below to form test tea samples with different concentrations. In other words, the thus obtained test tea samples to be used for treating a respective cancer/tumor cell line shown in Table 3 were prepared using the same complete medium as that for the respective cancer/tumor cell line. […] Specifically, each of the aforesaid commercially available agents was subjected to the method described below to prepare comparative test samples. A proper amount of a respective commercially available agent was dissolved in phosphate-buffered saline (PBS) to prepare a stock solution with a concentration of 5 mg/mL, followed by using a membrane filter with a pore size of 0.22 μm to conduct vacuum filtration and sterilization. The resulting stock solution was diluted with a respective complete medium shown in Table 3 below to form comparative test samples with different concentrations. To be specific, the comparative test samples prepared from the respective commercially available agent have the concentrations shown in Table 2 below. The thus obtained comparative test samples to be used for treating a respective cancer/tumor cell line shown in Table 3 were prepared using the same complete medium as that for the respective cancer/tumor cell line. […] The cultivation of each cancer/tumor cell line is described as follows. […] Afterwards, a cell suspension having a cell density of 1.0×10^4 cells/mL was prepared. […] As experimental groups, the tumor/cancer cells of each cell line were treated with the test tea samples prepared from one or more of the tea products and the comparative test samples prepared from one or more of the commercially available agents as obtained in section B of this example (for more detailed information about the tea product(s) and the commercially available product (s) used to treat each cell line, please see Table 4 below). To be specific, 6 to 10 test tea samples prepared from the same tea product and having different concentrations, as well as 6 to 10 comparative test samples prepared from the same commercially available agent and having different concentrations, were utilized to treat the tumor/cancer cells of each cell line. For each experimental group, 6 repetitions of tumor/cancer treatment were performed. For the control group, 100 μL of PBS was added to a well containing the medium and the cancer/tumor cells of the respective cell line. For the blank group, 100 μL of PBS was added to a well containing a complete medium the same as that used for cultivation of the cancer/tumor cells of the respective cell line. After the treatment described above, cultivation was conducted in an incubator (37° C., 100% relative humidity, 5% CO2) for 48 hours. Subsequently, the liquid containing the medium and the sample in the well was removed, and a respective complete medium (shown in Table 3 above) containing 10% CCK-8 (Cell Counting Kit-8)(Dojindo Molecular Technologies, Inc., Cat. No. CK04-13) was added. Cultivation was performed in an incubator (37° C.) for 2 to 4 hours, followed by gently shaking.

[3] = In vitro antitumor/anticancer testing (CCK-8), SMMC-7721; format: cell-based, human; details: SMMC-7721; 48 h
Experimental: as §1

[4] = tested on: human leukemia cell line HL-60; test: In vitro antitumor/anticancer testing (CCK-8), HL-60; format: cell-based; details: 48 h
Experimental: as §1

[5] = 35 days, 5-fluorouracil 15.0 mg/kg per day intra-abdominal injection, Tea Product 1 0.6 mL of 10% per day intragastric gavage

**Q.** Which results are given for `O=c1[nH]cc(F)c(=O)[nH]1` [5-fluorouracil]?
**A.** Body weight Before treatment ([1]; Animal Model 2, baseline): 17.22 g; Body weight After treatment [1, 5]: 24.32 g; Percent tumor growth inhibition [1, 5]: 48.96%; Tumor weight [1, 5]: 0.034 g

**Q.** What does the source list for `O=C(O[C@@H]1Cc2c(O)cc(O)cc2O[C@@H]1c1cc(O)c(O)c(O)c1)c1cc(O)c(O)c(O)c1` [EGCG monomer, epigallocatechin gallate]?
**A.** Percent growth inhibition ([2]; 0.3125 μg/mL): 2.20%; Percent growth inhibition ([2]; 0.625 μg/mL): 3.98%; Percent growth inhibition ([2]; 1.25 μg/mL): 3.64%; Percent growth inhibition ([2]; 2.5 μg/mL): 5.54%; Percent growth inhibition ([2]; 5 μg/mL): 6.15%; Percent growth inhibition ([2]; 10 μg/mL): 4.47%; Percent growth inhibition ([2]; 20 μg/mL): 36.88%; Percent growth inhibition ([2]; 40 μg/mL): 81.73%; Percent growth inhibition ([2]; 80 μg/mL): 99.42%; IC50 ([2]; SK-OV-3): IC50 (μg/mL) = 24.05; IC50 [3]: IC50 (μg/mL) = 77.41; Percent growth inhibition ([4]; 2.5 μg/mL): 5.10%; Percent growth inhibition ([4]; 5 μg/mL): 12.43%; Percent growth inhibition ([4]; 10 μg/mL): 16.22%; Percent growth inhibition ([4]; 20 μg/mL): 27.14%; Percent growth inhibition ([4]; 40 μg/mL): 44.21%; Percent growth inhibition ([4]; 80 μg/mL): 76.96%; Percent growth inhibition ([4]; 160 μg/mL): 73.03%; Percent growth inhibition ([4]; 320 μg/mL): 83.90%; Percent growth inhibition ([4]; 640 μg/mL): 91.13%; IC50 ([4]; HL-60): IC50 (μg/mL) = 44.96
